From patent publication US20140121373A1, “PROCESS FOR PREPARING STABLE POLYMORPHIC FORM OF ERLOTINIB HYDROCHLORIDE” (CADILA HEALTHCARE LIMITED, priority 2011, published 2014)

Assay: Chemical stability study of the stable form of Erlotinib hydrochloride (description, HPLC impurities, moisture content, assay on storage)
Assay type: physicochemical
Conditions: for Imp-1 (%) (N-(3-Ethynylphenyl)-6-(2-chloroethoxy)-7-(2-methoxyethoxy)-quinazolin-4-amine hydrochloride) / Imp-2 (%) (N-(3-Ethynylphenyl)-7-(2-chloroethoxy)-6-(2-methoxyethoxy)-quinazolin-4-amine hydrochloride): limit 0.15 w/w; for m/c (%): limit 0.5 w/w; for Assay (%), OAB: limit 98.0-102 w/w; for Description: limit White to off white; for HPLC single maximum impurity content / HPLC total impurity content / water content: storage condition not stated
Experimental: (Refrigerator), 25° C.±2° C.[…], 30° C.±2° C./65%±5% RH (Real Time) and 40° C.±2° C./75%±5% RH of Erlotinib Hydrochloride
Differential Scanning Calorimetry (DSC): Melting points are determined by means of a DSC thermogram using a Pyris-1 make Perkin Elmer. DSC (Differential Scanning Calorimetry) is the technique of dynamic differential Calorimetry. Using this technique, the melting temperature can be measured by heating the sample until a thermal, i.e. an endothermic or exothermic, reaction is detected by means of ultrasensitive sensors. The DSC cell/sample chamber was purged with 100 ml/min of ultra-high purity nitrogen. The instrument was calibrated with high purity Indium. The sample was placed into an open aluminum DSC pan and measured against an empty reference pan. About 2 mg of sample being placed into the bottom of the pan and lightly tapped down to ensure good contact with the pan. The instrument was programmed to heat at a heating rate of 10° C./min in the temperature range between 50° C. and 300° C. • Microscope: A Lieca Microscope with Linkam Hot stage microscopy (TMS-94) system with polarized light, CCD camera and Linksys 32 data software. • HPLC: High Performance Liquid Chromatography Separation Module with PDA detector, Make Waters, Model No 2695. • KF: Moisture content was analyzed by using Karl Fisher Autotitrator 795 KFT Titrino make Metrohm.

[1] = 5° C. ± 3° C. (Refrigerator), Month 1
[2] = 5° C. ± 3° C. (Refrigerator), Month 2
[3] = 5° C. ± 3° C. (Refrigerator), Month 3
[4] = 5° C. ± 3° C. (Refrigerator), Month 6
[5] = 25° C. ± 2° C./60% ± 5% RH, Month 1
[6] = 25° C. ± 2° C./60% ± 5% RH, Month 2
[7] = 25° C. ± 2° C./60% ± 5% RH, Month 3
[8] = 25° C. ± 2° C./60% ± 5% RH, Month 6
[9] = 30° C. ± 2° C./65% ± 5% RH (Real Time), Month 1
[10] = 30° C. ± 2° C./65% ± 5% RH (Real Time), Month 2
[11] = 30° C. ± 2° C./65% ± 5% RH (Real Time), Month 3
[12] = 30° C. ± 2° C./65% ± 5% RH (Real Time), Month 6
[13] = 40° C. ± 2° C./75% ± 5% RH, Month 1
[14] = 40° C. ± 2° C./75% ± 5% RH, Month 2
[15] = 40° C. ± 2° C./75% ± 5% RH, Month 3
[16] = 40° C. ± 2° C./75% ± 5% RH, Month 6

Structure (SMILES): C#Cc1cccc(Nc2ncnc3cc(OCCOC)c(OCCOC)cc23)c1.Cl [Erlotinib hydrochloride, 4-(3-Ethynylphenylamino)-6,7-bis(2-methoxyethoxy)-quinazoline]
- period over which stable with all impurities in limit (5° C. to 40° C./75% RH storage conditions of the chemical stability table): ≥ 6 months
- Total Imp [1]: 0.12 % w/w
- Imp-1 (%) (N-(3-Ethynylphenyl)-6-(2-chloroethoxy)-7-(2-methoxyethoxy)-quinazolin-4-amine hydrochloride) [1]: 0.05%
- Imp-2 (%) (N-(3-Ethynylphenyl)-7-(2-chloroethoxy)-6-(2-methoxyethoxy)-quinazolin-4-amine hydrochloride) [1]: 0.07%
- m/c (%) [1]: 0.16%
- Assay (%), OAB [1]: 99.5%
- Description [1]: Complies
- Total Imp [2]: 0.13 % w/w
- Imp-1 (%) (N-(3-Ethynylphenyl)-6-(2-chloroethoxy)-7-(2-methoxyethoxy)-quinazolin-4-amine hydrochloride) [2]: 0.05%
- Imp-2 (%) (N-(3-Ethynylphenyl)-7-(2-chloroethoxy)-6-(2-methoxyethoxy)-quinazolin-4-amine hydrochloride) [2]: 0.08%
- m/c (%) [2]: 0.15%
- Assay (%), OAB [2]: 99.6%
- Description [2]: Complies
- Total Imp [3]: 0.13 % w/w
- Imp-1 (%) (N-(3-Ethynylphenyl)-6-(2-chloroethoxy)-7-(2-methoxyethoxy)-quinazolin-4-amine hydrochloride) [3]: 0.05%
- Imp-2 (%) (N-(3-Ethynylphenyl)-7-(2-chloroethoxy)-6-(2-methoxyethoxy)-quinazolin-4-amine hydrochloride) [3]: 0.08%
- m/c (%) [3]: 0.15%
- Assay (%), OAB [3]: 99.5%
- Description [3]: Complies
- Total Imp [4]: 0.14 % w/w
- Imp-1 (%) (N-(3-Ethynylphenyl)-6-(2-chloroethoxy)-7-(2-methoxyethoxy)-quinazolin-4-amine hydrochloride) [4]: 0.06%
- Imp-2 (%) (N-(3-Ethynylphenyl)-7-(2-chloroethoxy)-6-(2-methoxyethoxy)-quinazolin-4-amine hydrochloride) [4]: 0.08%
- m/c (%) [4]: 0.15%
- Assay (%), OAB [4]: 99.8%
- Description [4]: Complies
- Total Imp [5]: 0.13 % w/w
- Imp-1 (%) (N-(3-Ethynylphenyl)-6-(2-chloroethoxy)-7-(2-methoxyethoxy)-quinazolin-4-amine hydrochloride) [5]: 0.05%
- Imp-2 (%) (N-(3-Ethynylphenyl)-7-(2-chloroethoxy)-6-(2-methoxyethoxy)-quinazolin-4-amine hydrochloride) [5]: 0.08%
- m/c (%) [5]: 0.14%
- Assay (%), OAB [5]: 99.9%
- Description [5]: Complies
- Total Imp [6]: 0.13 % w/w
- Imp-1 (%) (N-(3-Ethynylphenyl)-6-(2-chloroethoxy)-7-(2-methoxyethoxy)-quinazolin-4-amine hydrochloride) [6]: 0.05%
- Imp-2 (%) (N-(3-Ethynylphenyl)-7-(2-chloroethoxy)-6-(2-methoxyethoxy)-quinazolin-4-amine hydrochloride) [6]: 0.08%
- m/c (%) [6]: 0.13%
- Assay (%), OAB [6]: 99.2%
- Description [6]: Complies
- Total Imp [7]: 0.13 % w/w
- Imp-1 (%) (N-(3-Ethynylphenyl)-6-(2-chloroethoxy)-7-(2-methoxyethoxy)-quinazolin-4-amine hydrochloride) [7]: 0.05%
- Imp-2 (%) (N-(3-Ethynylphenyl)-7-(2-chloroethoxy)-6-(2-methoxyethoxy)-quinazolin-4-amine hydrochloride) [7]: 0.08%
- m/c (%) [7]: 0.14%
- Assay (%), OAB [7]: 99.3%
- Description [7]: Complies
- Total Imp [8]: 0.13 % w/w
- Imp-1 (%) (N-(3-Ethynylphenyl)-6-(2-chloroethoxy)-7-(2-methoxyethoxy)-quinazolin-4-amine hydrochloride) [8]: 0.05%
- Imp-2 (%) (N-(3-Ethynylphenyl)-7-(2-chloroethoxy)-6-(2-methoxyethoxy)-quinazolin-4-amine hydrochloride) [8]: 0.08%
- m/c (%) [8]: 0.14%
- Assay (%), OAB [8]: 99.9%
- Description [8]: Complies
- Total Imp [9]: 0.14 % w/w
- Imp-1 (%) (N-(3-Ethynylphenyl)-6-(2-chloroethoxy)-7-(2-methoxyethoxy)-quinazolin-4-amine hydrochloride) [9]: 0.06%
- Imp-2 (%) (N-(3-Ethynylphenyl)-7-(2-chloroethoxy)-6-(2-methoxyethoxy)-quinazolin-4-amine hydrochloride) [9]: 0.08%
- m/c (%) [9]: 0.12%
- Assay (%), OAB [9]: 99.6%
- Description [9]: Complies
- Total Imp [10]: 0.13 % w/w
- Imp-1 (%) (N-(3-Ethynylphenyl)-6-(2-chloroethoxy)-7-(2-methoxyethoxy)-quinazolin-4-amine hydrochloride) [10]: 0.05%
- Imp-2 (%) (N-(3-Ethynylphenyl)-7-(2-chloroethoxy)-6-(2-methoxyethoxy)-quinazolin-4-amine hydrochloride) [10]: 0.08%
- m/c (%) [10]: 0.15%
- Assay (%), OAB [10]: 99.4%
- Description [10]: Complies
- Total Imp [11]: 0.13 % w/w
- Imp-1 (%) (N-(3-Ethynylphenyl)-6-(2-chloroethoxy)-7-(2-methoxyethoxy)-quinazolin-4-amine hydrochloride) [11]: 0.05%
- Imp-2 (%) (N-(3-Ethynylphenyl)-7-(2-chloroethoxy)-6-(2-methoxyethoxy)-quinazolin-4-amine hydrochloride) [11]: 0.08%
- m/c (%) [11]: 0.15%
- Assay (%), OAB [11]: 99.4%
- Description [11]: Complies
- Total Imp [12]: 0.14 % w/w
- Imp-1 (%) (N-(3-Ethynylphenyl)-6-(2-chloroethoxy)-7-(2-methoxyethoxy)-quinazolin-4-amine hydrochloride) [12]: 0.06%
- Imp-2 (%) (N-(3-Ethynylphenyl)-7-(2-chloroethoxy)-6-(2-methoxyethoxy)-quinazolin-4-amine hydrochloride) [12]: 0.08%
- m/c (%) [12]: 0.14%
- Assay (%), OAB [12]: 99.8%
- Description [12]: Complies
- Total Imp [13]: 0.14 % w/w
- Imp-1 (%) (N-(3-Ethynylphenyl)-6-(2-chloroethoxy)-7-(2-methoxyethoxy)-quinazolin-4-amine hydrochloride) [13]: 0.06%
- Imp-2 (%) (N-(3-Ethynylphenyl)-7-(2-chloroethoxy)-6-(2-methoxyethoxy)-quinazolin-4-amine hydrochloride) [13]: 0.08%
- m/c (%) [13]: 0.15%
- Assay (%), OAB [13]: 99.3%
- Description [13]: Complies
- Total Imp [14]: 0.13 % w/w
- Imp-1 (%) (N-(3-Ethynylphenyl)-6-(2-chloroethoxy)-7-(2-methoxyethoxy)-quinazolin-4-amine hydrochloride) [14]: 0.05%
- Imp-2 (%) (N-(3-Ethynylphenyl)-7-(2-chloroethoxy)-6-(2-methoxyethoxy)-quinazolin-4-amine hydrochloride) [14]: 0.08%
- m/c (%) [14]: 0.16%
- Assay (%), OAB [14]: 99.5%
- Description [14]: Complies
- Total Imp [15]: 0.13 % w/w
- Imp-1 (%) (N-(3-Ethynylphenyl)-6-(2-chloroethoxy)-7-(2-methoxyethoxy)-quinazolin-4-amine hydrochloride) [15]: 0.05%
- Imp-2 (%) (N-(3-Ethynylphenyl)-7-(2-chloroethoxy)-6-(2-methoxyethoxy)-quinazolin-4-amine hydrochloride) [15]: 0.08%
- m/c (%) [15]: 0.16%
- Assay (%), OAB [15]: 99.9%
- Description [15]: Complies
- Total Imp [16]: 0.14 % w/w
- Imp-1 (%) (N-(3-Ethynylphenyl)-6-(2-chloroethoxy)-7-(2-methoxyethoxy)-quinazolin-4-amine hydrochloride) [16]: 0.06%
- Imp-2 (%) (N-(3-Ethynylphenyl)-7-(2-chloroethoxy)-6-(2-methoxyethoxy)-quinazolin-4-amine hydrochloride) [16]: 0.08%
- m/c (%) [16]: 0.17%
- Assay (%), OAB [16]: 99.4%
- Description [16]: Complies
- HPLC single maximum impurity content (Initial): 0.08 % w/w
- HPLC total impurity content (Initial): 0.13 % w/w
- water content (Initial): 0.14 % w/w
- HPLC single maximum impurity content (after 3 months): 0.08 % w/w
- HPLC total impurity content (after 3 months): 0.13 % w/w
- water content (after 3 months): 0.14 % w/w
- HPLC single maximum impurity content (after 6 months): 0.08 % w/w
- HPLC total impurity content (after 6 months): 0.13 % w/w
- water content (after 6 months): 0.14 % w/w
